Reference: the NIST ThermoML archive (doi:10.1016/j.jct.2017.05.001)

Assay: wn = mass fraction of the nth substance listed
Conditions: Liquid; for mass density: Vibrating tube method

OCCNCCO [diethanolamine] + O
mass density [kg/m3]
Conditions | w1 = 0.0993 | w1 = 0.2 | w1 = 0.3002 | w1 = 0.3997
333.15 K, 130000 kPa | 1041.7 | 1050.9 | 1060.6 | 1070.8
333.15 K, 140000 kPa | 1045 | 1054.1 | 1063.7 | 1074
353.15 K, 100 kPa | 981.9 | 992.4 | 1003 | 1013.9
353.15 K, 500 kPa | 982 | 992.5 | 1003.1 | 1014
353.15 K, 1000 kPa | 982.2 | 992.7 | 1003.4 | 1014.2
353.15 K, 2000 kPa | 982.6 | 993.1 | 1003.7 | 1014.5
353.15 K, 5000 kPa | 983.9 | 994.4 | 1005 | 1015.8
353.15 K, 10000 kPa | 986.1 | 996.5 | 1007.1 | 1017.8
353.15 K, 15000 kPa | 988.2 | 998.6 | 1009.1 | 1019.8
353.15 K, 20000 kPa | 990.3 | 1000.6 | 1011.1 | 1021.8
353.15 K, 30000 kPa | 994.4 | 1004.7 | 1015.1 | 1025.7
353.15 K, 40000 kPa | 998.5 | 1008.5 | 1018.9 | 1029.4
353.15 K, 50000 kPa | 1002.4 | 1012.4 | 1022.6 | 1033
353.15 K, 60000 kPa | 1006.2 | 1016.3 | – | –

viscosity [mPa·s], 353.15 K
Conditions | 100 kPa | 5000 kPa | 10000 kPa | 15000 kPa | 20000 kPa | 25000 kPa | 30000 kPa | 40000 kPa | 60000 kPa
Concentric cylinders viscometry, w1 = 0.1 | 0.474 | – | – | – | – | – | – | – | –
Concentric cylinders viscometry, w1 = 0.2 | 0.627 | – | – | – | – | – | – | – | –
Concentric cylinders viscometry, w1 = 0.3 | 0.866 | – | – | – | – | – | – | – | –
Concentric cylinders viscometry, w1 = 0.4 | 1.244 | – | – | – | – | – | – | – | –
Falling or rolling sphere viscometry, w1 = 0.0993 | 0.4595 | 0.4583 | 0.4614 | 0.4631 | 0.464 | 0.4671 | 0.4692 | 0.4733 | 0.4815
Falling or rolling sphere viscometry, w1 = 0.2 | 0.6088 | 0.6083 | 0.6136 | 0.6167 | 0.6198 | 0.6239 | 0.6271 | 0.6333 | 0.646
Falling or rolling sphere viscometry, w1 = 0.3002 | 0.8528 | 0.8459 | 0.8544 | 0.8578 | 0.8642 | 0.8704 | 0.8768 | 0.8887 | 0.9096
Falling or rolling sphere viscometry, w1 = 0.3997 | 1.226 | 1.231 | 1.239 | 1.247 | 1.255 | 1.264 | 1.275 | 1.292 | 1.335
